Data published in US11739098B2 (BRISTOL-MYERS SQUIBB COMPANY, priority 2017, dated 2023).

What was measured:
Type in all cases: cell-based
human TLR7 = biological target: T1, human TLR7 (Homo sapiens, UniProt Q9NYK1); assay: TLR7 inhibition reporter assay (HEK-Blue cells, SEAP reporter, gardiquimod stimulation); conditions: HEK-Blue cells overexpressing human TLR7, SEAP reporter, gardiquimod 7.5 μM
T1 construct: host or cells: HEK-Blue cells (HEK293-derived reporter line)
T1 sequence (Q9NYK1 27-1049): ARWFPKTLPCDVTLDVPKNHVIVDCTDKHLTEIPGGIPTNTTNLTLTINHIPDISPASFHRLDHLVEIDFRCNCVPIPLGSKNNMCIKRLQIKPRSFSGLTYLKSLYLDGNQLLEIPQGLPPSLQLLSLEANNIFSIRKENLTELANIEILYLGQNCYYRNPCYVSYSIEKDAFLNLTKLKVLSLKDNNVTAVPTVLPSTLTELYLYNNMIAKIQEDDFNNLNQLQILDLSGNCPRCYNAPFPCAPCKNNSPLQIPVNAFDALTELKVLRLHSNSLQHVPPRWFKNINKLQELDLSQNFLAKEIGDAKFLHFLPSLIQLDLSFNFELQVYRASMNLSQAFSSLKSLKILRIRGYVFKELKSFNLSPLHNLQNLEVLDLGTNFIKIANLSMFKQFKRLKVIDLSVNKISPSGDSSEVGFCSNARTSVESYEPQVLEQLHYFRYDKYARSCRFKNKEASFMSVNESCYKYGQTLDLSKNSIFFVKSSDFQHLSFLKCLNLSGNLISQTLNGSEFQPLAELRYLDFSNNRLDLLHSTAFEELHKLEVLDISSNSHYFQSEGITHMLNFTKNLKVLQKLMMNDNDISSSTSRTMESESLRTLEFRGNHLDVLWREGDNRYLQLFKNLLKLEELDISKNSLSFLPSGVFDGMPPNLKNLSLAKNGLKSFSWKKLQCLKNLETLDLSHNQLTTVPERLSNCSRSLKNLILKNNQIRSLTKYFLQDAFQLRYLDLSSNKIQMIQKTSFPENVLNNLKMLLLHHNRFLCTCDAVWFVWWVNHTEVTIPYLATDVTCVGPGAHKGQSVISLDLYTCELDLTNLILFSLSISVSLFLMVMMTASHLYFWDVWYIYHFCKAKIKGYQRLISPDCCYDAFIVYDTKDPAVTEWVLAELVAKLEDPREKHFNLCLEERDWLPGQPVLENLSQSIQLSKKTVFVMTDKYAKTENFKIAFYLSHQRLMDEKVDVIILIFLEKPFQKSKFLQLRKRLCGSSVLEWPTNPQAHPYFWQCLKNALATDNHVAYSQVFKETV
Method in brief: (§1)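 Read-out is SEAP activity in HEK-Blue detection medium after 22 h at 37 °C, converted to percent inhibition against agonist-plus-DMSO and reference-inhibitor controls. Cells saw compound (0.05 nM–50 μM, 30 min, room temperature) before gardiquimod 7.5 μM, R848 15.9 μM or ODN2006 5 nM for TLR7, TLR8 and TLR9, respectively.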

human TLR9 = biological target: T2, human TLR9 (Homo sapiens, UniProt Q9NR96); assay: TLR9 inhibition reporter assay (HEK-Blue cells, SEAP reporter, ODN2006 stimulation); conditions: HEK-Blue cells overexpressing human TLR9, SEAP reporter, ODN2006 5 nM
T2 construct: host or cells: HEK-Blue cells (HEK293-derived reporter line)
T2 sequence (Q9NR96 26-1032): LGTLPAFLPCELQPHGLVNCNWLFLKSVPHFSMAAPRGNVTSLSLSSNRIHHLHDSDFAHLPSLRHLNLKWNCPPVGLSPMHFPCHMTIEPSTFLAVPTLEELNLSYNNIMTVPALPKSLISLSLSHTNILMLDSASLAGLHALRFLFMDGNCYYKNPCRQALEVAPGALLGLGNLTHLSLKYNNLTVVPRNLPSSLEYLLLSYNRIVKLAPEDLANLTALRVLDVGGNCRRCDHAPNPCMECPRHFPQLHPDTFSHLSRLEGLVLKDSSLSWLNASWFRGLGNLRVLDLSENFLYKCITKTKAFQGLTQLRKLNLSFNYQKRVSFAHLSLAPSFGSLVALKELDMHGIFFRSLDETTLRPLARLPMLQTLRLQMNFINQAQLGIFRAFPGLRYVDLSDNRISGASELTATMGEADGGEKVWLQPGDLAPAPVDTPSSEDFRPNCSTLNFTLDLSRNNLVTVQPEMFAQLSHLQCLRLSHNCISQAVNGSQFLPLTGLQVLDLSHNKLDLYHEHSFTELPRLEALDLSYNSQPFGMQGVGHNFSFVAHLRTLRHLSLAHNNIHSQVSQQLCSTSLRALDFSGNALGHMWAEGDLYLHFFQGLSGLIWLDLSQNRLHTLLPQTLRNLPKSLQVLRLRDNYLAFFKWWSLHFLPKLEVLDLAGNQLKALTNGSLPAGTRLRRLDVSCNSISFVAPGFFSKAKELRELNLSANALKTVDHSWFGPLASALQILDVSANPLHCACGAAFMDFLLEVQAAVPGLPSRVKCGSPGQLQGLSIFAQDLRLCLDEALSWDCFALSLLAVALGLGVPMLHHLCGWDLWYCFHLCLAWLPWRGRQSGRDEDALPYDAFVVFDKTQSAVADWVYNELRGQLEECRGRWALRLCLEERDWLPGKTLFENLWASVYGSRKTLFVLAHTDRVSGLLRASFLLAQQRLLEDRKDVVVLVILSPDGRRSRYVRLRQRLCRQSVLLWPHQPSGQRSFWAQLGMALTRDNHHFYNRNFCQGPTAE
Method in brief: as §1

human TLR8 = biological target: T3, human TLR8 (Homo sapiens, UniProt Q9NR97); assay: TLR8 inhibition reporter assay (HEK-Blue cells, SEAP reporter, R848 stimulation); conditions: HEK-Blue cells overexpressing human TLR8, SEAP reporter, R848 15.9 μM
T3 construct: host or cells: HEK-Blue cells (HEK293-derived reporter line)
T3 sequence (Q9NR97 27-1041): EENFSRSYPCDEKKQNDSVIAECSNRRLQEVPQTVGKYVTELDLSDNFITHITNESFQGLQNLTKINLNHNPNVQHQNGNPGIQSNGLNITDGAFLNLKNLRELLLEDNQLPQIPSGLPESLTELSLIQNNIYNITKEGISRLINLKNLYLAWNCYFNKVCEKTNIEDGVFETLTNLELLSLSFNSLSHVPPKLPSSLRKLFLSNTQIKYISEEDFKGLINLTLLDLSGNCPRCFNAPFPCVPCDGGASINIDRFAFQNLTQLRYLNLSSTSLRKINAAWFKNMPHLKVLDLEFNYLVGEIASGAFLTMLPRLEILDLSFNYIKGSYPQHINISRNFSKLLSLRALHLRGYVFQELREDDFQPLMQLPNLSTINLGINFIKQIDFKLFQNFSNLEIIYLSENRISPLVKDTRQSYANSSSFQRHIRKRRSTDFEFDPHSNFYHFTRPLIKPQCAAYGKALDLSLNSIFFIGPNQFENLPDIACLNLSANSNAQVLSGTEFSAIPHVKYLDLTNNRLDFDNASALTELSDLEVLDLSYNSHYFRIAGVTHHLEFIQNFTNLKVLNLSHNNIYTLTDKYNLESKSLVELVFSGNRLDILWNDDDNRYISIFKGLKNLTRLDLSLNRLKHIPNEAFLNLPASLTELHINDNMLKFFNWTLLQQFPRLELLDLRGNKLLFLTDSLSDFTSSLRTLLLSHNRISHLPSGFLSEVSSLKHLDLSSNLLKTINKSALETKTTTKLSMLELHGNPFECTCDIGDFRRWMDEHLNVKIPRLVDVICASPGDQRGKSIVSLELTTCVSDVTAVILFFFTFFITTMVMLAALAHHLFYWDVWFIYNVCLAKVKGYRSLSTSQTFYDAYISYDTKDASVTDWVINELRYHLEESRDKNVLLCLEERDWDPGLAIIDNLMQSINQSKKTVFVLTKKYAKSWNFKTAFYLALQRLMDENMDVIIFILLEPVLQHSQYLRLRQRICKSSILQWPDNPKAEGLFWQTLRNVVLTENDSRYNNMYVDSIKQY
Method in brief: as §1

| SMILES | IC50 (human TLR7) [nM] | IC50 (human TLR9) [nM] | IC50 (human TLR8) [nM] |
| --- | --- | --- | --- |
| Cc1cc2cc(-c3[nH]c4ccc(C5CCN(C(=O)CN(C)C)CC5)cc4c3C(C)C)cc(CC(C)C)n2n1 [Example 524, 2-(dimethylamino)-1-(4-(2-(7-isobutyl-2-methylpyrazolo[1,5-a]pyridin-5-yl)-3-isopropyl-1H-indol-5-yl)piperidin-1-yl)ethan-1-one] | > 3130 | 1000 to 50000 | > 3130 |
| CNC(=O)CN1CCC(c2ccc3[nH]c(-c4ccc5ncc(C#N)n5c4)c(C(C)C)c3c2)CC1 [Example 390, 2-(4-(2-(3-cyanoimidazo[1,2-a]pyridin-6-yl)-3-isopropyl-1H-indol-5-yl)piperidin-1-yl)-N-methylacetamide] | 100 to 1000 | > 50000 | 100 to 1000 |
| CCc1c(-c2ncnc3[nH]ccc23)[nH]c2ccc(C3CCNCC3)cc12 [Example 206, 4-(3-ethyl-5-(piperidin-4-yl)-1H-indol-2-yl)-7H-pyrrolo[2,3-d] pyrimidine] | 100 to 1000 | 1000 to 50000 | < 100 |
| CCN1CCC(N2CCC(c3ccc4[nH]c(-c5ccnc6[nH]ccc56)c(C)c4c3)CC2)CC1 [Example 811, 4-(5-(1′-ethyl-[1,4′-bipiperidin]-4-yl)-3-methyl-1H-indol-2-yl)-1H-pyrrolo[2,3-b]pyridine] | < 100 | < 100 | < 100 |
| Cc1cc(-c2[nH]c3ccc(C4CCN(C(=O)CN5CCCC5)CC4)cc3c2C(C)C)cn2nnnc12 [Example 470, 1-(4-(3-isopropyl-2-(8-methyltetrazolo[1,5-a]pyridin-6-yl)-1H-indol-5-yl)piperidin-1-yl)-2-(pyrrolidin-1-yl) ethan-1-one] | < 100 | 1000 to 50000 | < 100 |
| CC(C)c1c(-c2ccc(Cl)c3[nH]ncc23)[nH]c2ccc(C3CCN(C(=O)CN(C)C)CC3)cc12 [Example 556, 1-(4-(2-(7-chloro-1H-indazol-4-yl)-3-isopropyl-1H-indol-5-yl)piperidin-1-yl)-2-(dimethylamino)ethan-1-one] | 100 to 1000 | 1000 to 50000 | 100 to 1000 |
| CCc1c(C)c(-c2[nH]c3ccc(C4CCNCC4)cc3c2C(C)C)cn2ccnc12 [Example 272, 8-ethyl-6-(3-isopropyl-5-(piperidin-4-yl)-1H-5 indol-2-yl)-7-methylimidazo[1,2-a]pyridine] | < 100 | 100 to 1000 | < 100 |
| Cc1n[nH]c2nccc(-c3[nH]c4ccc(C5CCN(Cc6cnc[nH]6)CC5)cc4c3C(C)C)c12 [Example 875, 4-(5-(1-((1H-imidazol-5-yl)methyl)piperidin-4-yl)-3-isopropyl-1H-indol-2-yl)-3-methyl-1H-pyrazolo[3,4-b]pyridine] | 100 to 1000 | 100 to 1000 | < 100 |
| Cc1cc(-c2[nH]c3ccc(C4CCN(C(=O)C[C@@H](C)O)CC4)cc3c2C(C)C)cn2nnnc12 [Example 594, (R)-3-hydroxy-1-(4-(3-isopropyl-2-(8-methyltetrazolo[1,5-a]pyridin-6-yl)-1H-indol-5-yl)piperidin-1-yl)butan-1-one] | < 100 | 1000 to 50000 | < 100 |
| COc1cc(-c2[nH]c3ccc(C4CCN(CC(C)(C)O)CC4)cc3c2C(C)C)cn2ccnc12 [Example 775, 1-(4-(3-isopropyl-2-(8-methoxyimidazo[1,2-a]pyridin-6-yl)-1H-indol-5-yl)piperidin-1-yl)-2-methylpropan-2-ol] | < 100 | 100 to 1000 | < 100 |
| CC(C)c1c(-c2cnc3ncnn3c2)[nH]c2ccc(C3CCN(CC(C)(C)O)CC3)cc12 [Example 773, 1-(4-(2-([1,2,4]triazolo[1,5-a]pyrimidin-6-yl)-3-isopropyl-1H-indol-5-yl)piperidin-1-yl)-2-methylpropan-2-ol] | 100 to 1000 | 1000 to 50000 | < 100 |
| CC(C)c1c(-c2ccnc3[nH]ncc23)[nH]c2ccc(C3CCN(C(=O)CNCCCN(C)C)CC3)cc12 [Example 575, 2-((3-(dimethylamino)propyl)amino)-1-(4-(3-isopropyl-2-(1H-pyrazolo[3,4-b]pyridin-4-yl)-1H-indol-5-yl)piperidin-1-yl)ethan-1-one] | < 100 | 100 to 1000 | < 100 |
| Cc1cn2cc(-c3[nH]c4ccc(C5CCN(Cc6c[nH]c(C)n6)CC5)cc4c3C(C)C)ccc2n1 [Example 937, 6-(3-isopropyl-5-(1-((2-methyl-1H-imidazol-4-yl)methyl)piperidin-4-yl)-1H-indol-2-yl)-2-methylimidazo[1,2-a]pyridine] | < 100 | < 100 | 100 to 1000 |
| CCc1c(-c2ccnc3[nH]cc(CC)c23)[nH]c2ccc(C3CCNCC3)cc12 [Example 220, 3-ethyl-4-(3-ethyl-5-(piperidin-4-yl)-1H-indol-2-yl)-1H-pyrrolo[2,3-b]pyridine] | 100 to 1000 | 1000 to 50000 | 100 to 1000 |
